{"source": "patent US20260234217A1", "about": "“USE OF BMP RECEPTOR ALK1 INHIBITORS IN OSTEOARTHRITIS THERAPIES” (The Regents of the University of California, priority 2023, published 2026)", "assay_in_all_cases": "Immunohistochemistry of articular cartilage in DMM mice", "assay_type_in_all_cases": "in vivo, mouse", "key": {"[1]": {"test_system": "Matrix Metalloproteinase-13 (MMP13)", "method": "(§1) Mice (C57BL/6J) were purchased from The Jackson Laboratory. All mice were housed on a 12-hour light/dark cycle with unrestricted access to standard mouse food and water. The DMM model of injury induced OA was performed on mice at 12 weeks of age by opening the joint capsule and transecting the medial meniscotibial ligament in the right knee, destabilizing the medial meniscus(48). A sham operation was performed on the left knee of each mouse by observing the medial meniscotibial ligament but not transecting it. Mice were administered carprofen 5 mg/kg (Zoetis; 1041283) subcutaneously 30 minutes prior to surgery, immediately post-surgery, and 24 hours post-surgery to minimize pain.\n(§2) Treatments were initiated either 1 day after DMM surgery once a week for 8 weeks, or 1 month after DMM surgery twice a week for 4 weeks. Mice were sacrificed at 20 weeks of age (2 months after surgery). To understand the level of articular cartilage damage 1 month after DMM surgery, a cohort of mice was sacrificed at 16 weeks old (FIG. 4).\n(§3) Seven micrometer-thick representative sections were chosen for immunohistochemistry, using a standard protocol (35). Tissue sections were deparaffinized, rehydrated, and washed in sodium borohydride (Sigma-Aldrich; 480886). Sections were then incubated with hyaluronidase (Sigma-Aldrich; H3505) and blocked with 5% serum in 1% PBST. Tissue sections were treated with primary antibodies to mouse ALK1 (R&D; AF770), Phospho-SMAD1/5 (Cell Signaling Technology; 9516), Phospho-SMAD2 (Cell Signaling Technology; 3108), MMP13 (Abcam; ab260040), and COL10 (Abcam; […]) and incubated overnight. Sections were then treated with a dilution of secondary antibody goat anti-rabbit IgG (H+L) Cross-Adsorbed Secondary Antibody, Alexa Flour 488 (Invitrogen; A-11008) or donkey anti-goat IgG (H+L) Cross-Adsorbed Secondary Antibody, Alexa Flour 488 (Invitrogen; A11055) for 4 hours. Finally, sections were incubated with 0.1 ug/mL of DAPI for 10 minutes before being mounted with Fluoro-Gel (Electron Microscopy Sciences; 17985-31). Images were taken with the Nikon Eclipse Ti fluorescent microscope."}, "pSMAD1/5": {"test_system": "pSMAD1/5", "method": "as §1, §2, §3"}, "Collagen-X (COL10)": {"test_system": "Collagen-X (COL10)", "method": "as §1, §2, §3"}, "pSMAD2/3": {"test_system": "pSMAD2/3", "method": "as §1, §2, §3"}, "[2]": {"conditions": "treated 1 month after DMM surgery"}, "[3]": {"conditions": "treatment immediately after DMM surgery, week 8, listed as BMP-KI"}, "[4]": {"conditions": "delayed administration (1 month after DMM surgery)"}, "[5]": {"conditions": "treatment immediately after DMM surgery, week 8"}}, "note": "Entries after “also recorded” stand apart in the source; their conditions may differ."}
{"smiles": "COc1cc(-c2cc(-c3ccc(N4CCNCC4)cc3)cnc2C)cc(OC)c1OC", "note": "[LDN-214117]", "values": [{"measurement": "MMP13 levels (percentage of cells expressing)", "setting": "[1]; [2]", "value": "attenuated to those of healthy sham control AC"}, {"measurement": "MMP13 levels (percent of cells expressing)", "setting": "[1]; [3]", "value": "significantly decreases levels of expression; also recorded: visibly reduced"}, {"measurement": "percentage of cells positive for pSMAD1/5", "setting": "pSMAD1/5; [4]", "value": "reduced"}, {"measurement": "pSMAD1/5 expression in articular cartilage", "setting": "pSMAD1/5; [5]", "value": "reduced to normal levels"}, {"measurement": "COL10 levels (percentage of cells expressing)", "setting": "Collagen-X (COL10); [2]", "value": "significantly decreased"}, {"measurement": "COL10 levels (percent of cells expressing)", "setting": "Collagen-X (COL10); [3]", "value": "significantly decreases levels of expression; also recorded: visibly reduced"}, {"measurement": "percent cells positive for pSMAD2/3", "setting": "pSMAD2/3; [4]", "value": "not rescued"}, {"measurement": "pSMAD2/3 expression in articular cartilage", "setting": "pSMAD2/3; [5]", "value": "not restored to normal levels"}]}
